Results reported in patent publication US20220396577A1, “NOVEL SUBSTITUTED 1,3-8-TRIAZASPIRO[4,5] DECANE-2,4-DIONE COMPOUNDS AS INDOLEAMINE 2,3-DIOXYGENASE (IDO) AND/OR TRYPTOPHAN 2,3-DIOXYGENASE (TDO) INHIBITORS” (Merck Sharp & Dohme LLC, priority 2019, published 2022).

Target: T1, FLT3(D835Y) (Homo sapiens, UniProt P36888, D835Y)
T1 sequence (P36888 27-993 D835Y): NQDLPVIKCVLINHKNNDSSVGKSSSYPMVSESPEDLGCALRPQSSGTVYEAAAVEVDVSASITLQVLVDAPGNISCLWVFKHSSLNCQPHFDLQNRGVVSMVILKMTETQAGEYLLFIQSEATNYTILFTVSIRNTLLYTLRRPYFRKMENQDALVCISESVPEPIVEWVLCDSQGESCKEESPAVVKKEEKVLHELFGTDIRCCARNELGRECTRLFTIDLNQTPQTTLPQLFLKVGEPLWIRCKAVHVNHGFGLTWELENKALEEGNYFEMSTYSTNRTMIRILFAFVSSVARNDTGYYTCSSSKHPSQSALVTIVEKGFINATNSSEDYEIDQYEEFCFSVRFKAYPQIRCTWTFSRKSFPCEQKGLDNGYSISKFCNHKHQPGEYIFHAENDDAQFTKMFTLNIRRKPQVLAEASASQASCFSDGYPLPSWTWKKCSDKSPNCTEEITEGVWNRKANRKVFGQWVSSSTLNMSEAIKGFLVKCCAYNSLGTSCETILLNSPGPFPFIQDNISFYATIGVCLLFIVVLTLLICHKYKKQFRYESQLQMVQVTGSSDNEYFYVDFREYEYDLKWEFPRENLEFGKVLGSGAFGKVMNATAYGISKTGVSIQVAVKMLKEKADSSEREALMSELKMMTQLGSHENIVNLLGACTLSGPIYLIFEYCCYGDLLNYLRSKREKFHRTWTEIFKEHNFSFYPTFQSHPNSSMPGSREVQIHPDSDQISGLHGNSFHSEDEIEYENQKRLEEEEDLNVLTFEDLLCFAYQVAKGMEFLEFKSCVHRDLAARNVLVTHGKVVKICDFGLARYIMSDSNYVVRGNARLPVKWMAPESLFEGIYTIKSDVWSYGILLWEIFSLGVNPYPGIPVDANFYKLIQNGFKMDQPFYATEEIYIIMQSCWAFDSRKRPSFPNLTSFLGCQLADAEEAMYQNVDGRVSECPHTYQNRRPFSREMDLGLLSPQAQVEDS
Assay: Off-target kinase panel, ZLYTE: FLT3(D835Y)
Format: biochemical
Settings: read-out: Estimated IC50 (uM) FLT3(D835Y)
Description: The activity data was obtained in a panel of 265 and 264 for compounds 1-1 and CC-1, respectively, using the ZLYTE and ADAPTA assay methods indicated in the table below.
The ZLYTE biochemical assay employs a fluorescence-based, coupled-enzyme format and is based on the differential sensitivity of phosphorylated and non-phosphorylated peptides to proteolytic cleavage. The peptide substrate is labeled with two fluorophores—one at each end—that make up a Fluorescence Resonance Energy Transfer (FRET) pair.
In the primary reaction, the kinase transfers the gamma-phosphate of ATP to a single tyrosine, serine or threonine residue in a synthetic FRET-peptide. In the secondary reaction, a site-specific protease recognizes and cleaves non-phosphorylated FRET-peptides. Phosphorylation of FRET-peptides suppresses cleavage by the Development Reagent. […] A ratiometric method, which calculates the ratio (the Emission Ratio) of donor emission to acceptor emission after excitation of the donor fluorophore at 400 nm, is used to quantitate reaction progress, as shown in the equation below. […]
Both cleaved and uncleaved FRET-peptides contribute to the fluorescence signals and therefore to the Emission Ratio. The extent of phosphorylation of the FRET-peptide can be calculated from the Emission Ratio. […]
10. Read on fluorescence plate reader and analyze the data.

O=C1NC(=O)C2(CCN(c3cc(Cl)cc4[nH]ncc34)CC2)N1 [CC-1]
IC50: 1.5 µM
